The target of the assay is T1, human CXCR3 (N-delta 4) (Homo sapiens, UniProt P49682).
T1 construct: CD8 leader (N); Flag tag; expressed in transfected cells; membrane preparation
T1 sequence (P49682 5-368 limits assumed): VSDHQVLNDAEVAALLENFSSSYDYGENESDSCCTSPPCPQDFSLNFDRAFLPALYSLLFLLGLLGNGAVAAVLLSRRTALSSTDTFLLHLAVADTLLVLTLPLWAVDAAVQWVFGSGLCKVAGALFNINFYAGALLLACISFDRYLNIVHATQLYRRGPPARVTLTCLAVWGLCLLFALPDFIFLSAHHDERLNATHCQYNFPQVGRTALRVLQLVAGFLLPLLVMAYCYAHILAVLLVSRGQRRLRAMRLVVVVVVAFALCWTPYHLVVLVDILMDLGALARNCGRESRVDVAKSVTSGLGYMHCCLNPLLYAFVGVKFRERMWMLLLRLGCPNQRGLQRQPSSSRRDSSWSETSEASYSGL
As to the kind of experiment: Human CXCR3 (N-delta 4) Scintillation Proximity Assay (SPA), [125I] IP-10 binding. An excerpt: The inventive compounds can readily be evaluated to determine activity at The CXCR3 receptors by known methods, such as, for example, Development of Human CXCR3 (N-delta 4) Binding Assay.
Cloning and Expression of Human CXCR3 (N-delta 4):
The DNA encoding human CXCR3 was cloned by PCR using human genomic DNA (Promega, Madison, Wis.) as a template. The PCR primers were designed based on the published sequence of human orphan receptor GPR9 (1) with incorporated restriction sites, a Kozak consensus sequence, CD8 leader and Flag tag. The PCR product was subcloned into the mammalian expression vector pME18Sneo, a derivative of the SR-alpha expression vector (designated as pME18Sneo-hCXCR3 (N-delta 4).
IL-3-dependent mouse pro-B cells Ba/F3 were transfected by electroporation in 0.4 ml Dulbecco's PBS containing 4×10^6 cells with 20 μg of pME18Sneo-hCXCR3 (N-delta 4) plasmid DNA. Cells were pulsed at 400 Volts, 100 OHMs, 960 μFd. The transfected cells were under selection with 1 mg/ml G418 (Life Technologies, Gaithersburg, Md.). G418-resistant Ba/F3 clones were screened for CXCR3 expression by specific binding of [^125I] IP-10 (NEN Life Science Products, Boston, Mass.).
Preparation of Ba/F3-hCXCR3 (N-delta 4) Membranes
Ba/F3 cells expressing human CXCR3 (N-delta 4) were pelleted and resuspended in the lysis buffer containing 10 mM HEPES, pH 7.5 and Complete protease inhibitors (1 tablet per 100 ml) (Boehringer Mannheim, Indianapolis, Ind.) at a cell density of 20×10^6 cells per ml. After 5 minutes incubation on ice, cells were transferred to 4639 cell disruption bomb (Parr Instrument, Moline, Ill.) and applied with 1,500 psi of nitrogen for 30 minutes on ice. Large cellular debris was removed by centrifugation at 1,000×g. Cell membrane in the supernatant was sedimented at 100,000×g. The membrane was resuspended in the lysis buffer supplemented with 10% sucrose and stored at −80° C. Total protein concentration of the membrane was determined by BCA method from Pierce (Rockford, Ill.).
Human CXCR3 (N-delta 4) Scintillation Proximity Assay (SPA)
For each assay point, 2 μg of membrane was preincubated for 1 hr with 300 μg wheat germ agglutinin (WGA) coated SPA beads (Amersham, Arlington Heights, Ill.) in the binding buffer (50 mM HEPES, 1 mM CaCl2, 5 mM MgCl2, 125 mM NaCl, 0.002% NaN3, 1.0% BSA) at room temperature. The beads were spun down, washed once, resuspended in the binding buffer and transferred to a 96-well Isoplate (Wallac, Gaithersburg, Md.). 25 pM of [^125I] IP-10 with tested compounds in a series of titration were added to start the reaction. After 3 hr reaction at room temperature, the amount of [^125I] IP-10 bound to the SPA beads was determined with a Wallac 1450 Microbeta counter.
In general terms: In a scintillation proximity assay essentially only radioactivity close to the scintillant gives light.

The mark [1] stands for this setting: human CXCR3, Ba/F3-hCXCR3 (N-delta 4) membranes, 25 pM [125I] IP-10, read-out: IC50 rating (human).
The mark [2] stands for this setting: numerical IC50 values of representative compounds, read-out: IC50.

This passage reports IC50 results from patent US20120157466A1, “HETEROCYCLIC COMPOUNDS WITH CXCR3 ANTAGONIST ACTIVITY” (priority 2007, published 2012).

The structures appear in SMILES notation. pIC50: −log10 of the molar value. Read-outs that look alike come from different tables or passages of the source.

In general, pIC50 refers to the negative decadic logarithm of the IC50, by convention in mol/L. `O=C(NCc1ccc(F)c(F)c1)c1cnc(N2CCN(C3CCN(Cc4ccc(Cl)cc4)CC3)CC2)nc1C(F)(F)F` [Compound 2]: under setting [1], the negative logarithm of the IC50 (pIC50) is below 7.00. For `O=C(NCc1ccc(F)c(F)c1)c1cnc(N2CCN(C3CCN(C(=O)c4ccc(Cl)cc4)CC3)CC2)nc1C(F)(F)F` [Compound 3], the negative logarithm of the IC50 (pIC50) under setting [1] was below 7.00.

On to `C[C@H]1CN(c2nccc(C(F)(F)F)n2)CCN1C1CCN(Cc2ccc(Cl)cc2)CC1` [Compound 5], for which the pIC50 under setting [1] is below 7.00. Take `CC[C@H]1CN(c2nc(Cl)c3nc[nH]c3n2)CCN1C1CCN(Cc2ccc(Cl)cc2F)CC1` [Compound 7]: the pIC50 under setting [1] was below 7.00.

For `CCNC(=O)c1cc(C)nc(N2CCN(C3CCN(Cc4ccc(Cl)cc4)CC3)[C@@H](CC)C2)n1` [Compound 8], the negative-log IC50 (pIC50) under setting [1] was below 7.00. The same measure, in the same setting: to `CC[C@H]1CN(c2nc3ncccc3c(=O)n2C)CCN1C1CCN(C(=O)c2ccc(Cl)cc2)CC1` [Compound 9] belongs 7.00 to 7.60.

For `CC[C@H]1CN(c2nc3ccccc3n2C)CCN1C1CCN(Cc2ccc(Cl)cc2F)CC1` [Compound 10], the negative logarithm of the IC50 (pIC50) under setting [1] was below 7.00. For the compound `CC[C@H]1CN(c2nc3ncccc3c(=O)n2C2CC2)CCN1C1CCN(C(=O)c2ccc(Cl)cc2)CC1` [Compound 11], the pIC50 under setting [1] is 7.00 to 7.60. Take `CC[C@H]1CN(c2nc3ncccc3c(=O)n2C2CC2)CCN1C1CCN(Cc2ccc(Cl)cc2)CC1` [Compound 12]: the pIC50 was above 7.60 under setting [1] and 8.72 under setting [2].

With `CC[C@H]1CN(c2nc3ncccc3c(=O)n2C2CC2)CCN1C1CCN(Cc2ccc(OC(F)(F)F)cc2)CC1` [Compound 13], the pIC50 under setting [1] was above 7.60 and the pIC50 under setting [2] is 8.55. For `CC[C@H]1CN(c2nc3ncccc3c(=O)n2C2CC2)CCN1C1CCN(Cc2ccc(C(F)(F)F)cc2)CC1` [Compound 14], the pIC50 is, setting by setting: under setting [1], above 7.60; under setting [2], 8.25. On to `CC[C@H]1CN(c2nc3ncccc3c(=O)n2C2CC2)CCN1C1CCN(Cc2ccc(Cl)c(F)c2)CC1` [Compound 15], for which the negative logarithm of the IC50 (pIC50) under setting [1] is above 7.60 and the negative-log IC50 (pIC50) under setting [2] is 8.74. As to `CC[C@H]1CN(c2nc3ncccc3c(=O)n2C2CC2)CCN1C1CCN(Cc2ccc(F)c(F)c2)CC1` [Compound 16], the negative-log IC50 (pIC50) under setting [1] was above 7.60. As to `CC[C@H]1CN(c2nc3ncccc3c(=O)n2C2CC2)CCN1C1CCN(Cc2ccc(Cl)cc2F)CC1` [Compound 17], the pIC50 by setting is: under setting [1], above 7.60; under setting [2], 8.60. For `CC[C@H]1CN(c2nc3ncccc3c(=O)n2C2CC2)CCN1C1CCN(Cc2ccc(C#N)cc2)CC1` [Compound 18], under setting [1], the negative logarithm of the IC50 (pIC50) is above 7.60. With `CC[C@H]1CN(c2nc3ncccc3c(=O)n2C)CCN1C1CCN(C(=O)c2ccc(Cl)nc2N)CC1` [Compound 19], the negative-log IC50 (pIC50) under setting [1] was below 7.00.

`CC[C@H]1CN(c2nc3ncccc3c(=O)n2C2CC2)CCN1C1CCN(C(=O)c2ccc(Cl)nc2N)CC1` [Compound 20]: under setting [1], the pIC50 is 7.00 to 7.60. Same read-out and setting: with `CC[C@H]1CN(c2nc3ncccc3c(=O)n2C)CCN1C1CCN(Cc2ccc(Cl)cc2)CC1` [Compound 21] the figure was above 7.60. For `CC[C@H]1CN(c2nc3ncccc3c(=O)n2C)CCN1C1CCN(Cc2ccc(OC(F)(F)F)cc2)CC1` [Compound 22], the pIC50 under setting [1] was above 7.60.

Take `CC[C@H]1CN(c2nc3ncccc3c(=O)n2C)[C@H](C)CN1C1CCN(C(=O)c2ccc(Cl)cc2)CC1` [Compound 23]: the pIC50 under setting [1] is below 7.00.
